The target of series [1] is Cytochrome P450 2D6 (Homo sapiens, UniProt P10635). Put plainly: Inhibition of human recombinant CYP2D6 by fluorescence assay. The series is classed as ADME.
The nature of series [2]: AUC100 in po dosed mouse. The note with it: in vivo. The format is ADME, organism-based.
Series [3] relates to A549. Put plainly: Cytotoxicity against human A549 cells after 72 hrs by fluorescence assay. The series is classed as cell-based. The note with it: A549, 72 h.
Series [4] concerns Mycobacterium tuberculosis. The series is described as follows: Antimycobacterial activity against Mycobacterium tuberculosis H37Rv ATCC 27294 after 5 days by microdilution method. The series is classed as functional. The conditions noted are these: H37Rv ATCC 27294, 120 h.
Series [5] can be described thus: Clearance in iv dosed mouse. The series is classed as ADME, organism-based. The note with it: in vivo.
Series [6] has as its system Salmonella typhimurium. The series is described as follows: Genotoxicity in Salmonella typhimurium TA100 at 16 ug/plate by Ames test in absence of S9 fraction. The series is classed as toxicity, organism-based. The note with it: salmonella enterica subsp. enterica serovar typhimurium. Background: In the Ames test, an excess of revertant colonies over the control signals mutagenicity.

For series [7], the system named is Salmonella typhimurium. Put plainly: Genotoxicity in Salmonella typhimurium TA98 at 1600 ug/plate by Ames test in presence of S9 fraction. The series is classed as toxicity, organism-based. The note with it: salmonella enterica subsp. enterica serovar typhimurium.
Series [8] in a line: Inhibition of Mycobacterium tuberculosis DprE1 using farnesyl-phosphoryl-beta-D-ribofuranose as substrate preincubated for 30 mins before substrate addition by peroxidase coupled assay.
Series [9] is described as follows: Fraction unbound in mouse plasma protein. The format is ADME, cell-free.
For series [10], the system named is Salmonella typhimurium. The series is described as follows: Genotoxicity in Salmonella typhimurium TA100 at 16 ug/plate by Ames test in presence of S9 fraction. The note with it: salmonella enterica subsp. enterica serovar typhimurium. The series is classed as toxicity, organism-based.
Series [11] can be described thus: Intrinsic clearance in mouse liver microsomes. The note with it: read-out: CLH. The format is ADME. On the technique in general: Liver microsomes are vesicles of endoplasmic reticulum, rich in cytochrome P450 enzymes.
Series [12] concerns the target Cytochrome P450 2C9 (Homo sapiens, UniProt P11712). The series is described as follows: Inhibition of human recombinant CYP2C9 by fluorescence assay. The series is classed as ADME. The note with it: read-out: IC50.
A short description of series [13]: Volume of distribution at steady state in mouse. The series is classed as ADME, organism-based. The note with it: in vivo, read-out: Vdss.
The nature of series [14]: Intrinsic clearance in human liver microsomes. The series is classed as ADME. The conditions noted are these: read-out: CLH.
The subject of series [15] is Salmonella typhimurium. The series is described as follows: Genotoxicity in Salmonella typhimurium TA98 at 1600 ug/plate by Ames test in absence of S9 fraction. The series is classed as toxicity, organism-based. The note with it: salmonella enterica subsp. enterica serovar typhimurium.
Series [16] can be described thus: Oral bioavailability in mouse. The format is ADME, organism-based. The conditions noted are these: in vivo.
Series [17] deals with T1, Cytochrome P450 1A2 (Homo sapiens, UniProt P05177).
T1 sequence (P05177 whole entry): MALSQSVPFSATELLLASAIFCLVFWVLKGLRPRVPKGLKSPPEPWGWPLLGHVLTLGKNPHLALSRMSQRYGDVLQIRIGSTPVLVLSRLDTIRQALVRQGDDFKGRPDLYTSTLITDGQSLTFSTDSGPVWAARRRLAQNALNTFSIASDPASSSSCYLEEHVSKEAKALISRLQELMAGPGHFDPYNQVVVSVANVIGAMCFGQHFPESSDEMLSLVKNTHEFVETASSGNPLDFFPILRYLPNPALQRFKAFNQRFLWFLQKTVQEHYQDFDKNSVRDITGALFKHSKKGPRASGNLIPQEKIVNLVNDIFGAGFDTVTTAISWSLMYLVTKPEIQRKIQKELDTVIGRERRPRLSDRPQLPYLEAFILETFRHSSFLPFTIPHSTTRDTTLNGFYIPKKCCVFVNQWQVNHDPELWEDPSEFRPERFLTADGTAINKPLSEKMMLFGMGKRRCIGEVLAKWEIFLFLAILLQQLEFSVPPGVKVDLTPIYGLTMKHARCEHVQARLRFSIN
Put plainly: Inhibition of human recombinant CYP1A2 by fluorescence assay. The format is ADME.

The target in series [18] is Cytochrome P450 3A4 (Homo sapiens, UniProt P08684). The series is described as follows: Inhibition of human recombinant CYP3A4 by fluorescence assay. The series is classed as ADME.
Series [19] can be described thus: Aqueous solubility of the compound. The format is physicochemical. The conditions noted are these: buffer.
For series [20], the target named is Cytochrome P450 2C19 (Homo sapiens, UniProt P33261). Put plainly: Inhibition of human recombinant CYP2C19 by fluorescence assay. The format is ADME.
For series [21], the system named is Salmonella typhimurium. Put plainly: Genotoxicity in Salmonella typhimurium TA100 at 500 ug/plate by Ames test in presence of S9 fraction. The format is toxicity, organism-based. The conditions noted are these: salmonella enterica subsp. enterica serovar typhimurium.
The test system of series [22] is Salmonella typhimurium. Put plainly: Genotoxicity in Salmonella typhimurium TA100 at 500 ug/plate by Ames test in absence of S9 fraction. The series is classed as toxicity, organism-based. The note with it: salmonella enterica subsp. enterica serovar typhimurium.
For series [23], the system named is Salmonella typhimurium. The series is described as follows: Genotoxicity in Salmonella typhimurium TA98 at 50 ug/plate by Ames test in absence of S9 fraction. The format is toxicity, organism-based. The conditions noted are these: salmonella enterica subsp. enterica serovar typhimurium.
In series [24] the test system is Salmonella typhimurium. Put plainly: Genotoxicity in Salmonella typhimurium TA100 at 50 ug/plate by Ames test in absence of S9 fraction. The series is classed as toxicity, organism-based. The note with it: salmonella enterica subsp. enterica serovar typhimurium.
Series [25] concerns Salmonella typhimurium. The series is described as follows: Genotoxicity in Salmonella typhimurium TA98 at 50 ug/plate by Ames test in presence of S9 fraction. The note with it: salmonella enterica subsp. enterica serovar typhimurium. The series is classed as toxicity, organism-based.
The test system of series [26] is Salmonella typhimurium. Put plainly: Genotoxicity in Salmonella typhimurium TA98 at 5000 ug/plate by Ames test in presence of S9 fraction. The format is toxicity, organism-based. The conditions noted are these: salmonella enterica subsp. enterica serovar typhimurium.
Series [27] relates to Salmonella typhimurium. The series is described as follows: Genotoxicity in Salmonella typhimurium TA98 at 5000 ug/plate by Ames test in absence of S9 fraction. The series is classed as toxicity, organism-based. The note with it: salmonella enterica subsp. enterica serovar typhimurium.
In series [28] the test system is Salmonella typhimurium. The series is described as follows: Genotoxicity in Salmonella typhimurium TA100 at 5000 ug/plate by Ames test in presence of S9 fraction. The series is classed as toxicity, organism-based. The note with it: salmonella enterica subsp. enterica serovar typhimurium.
In series [29] the test system is Salmonella typhimurium. The series is described as follows: Genotoxicity in Salmonella typhimurium TA100 at 5000 ug/plate by Ames test in absence of S9 fraction. The format is toxicity, organism-based. The conditions noted are these: salmonella enterica subsp. enterica serovar typhimurium.
In series [30] the test system is Salmonella typhimurium. Put plainly: Genotoxicity in Salmonella typhimurium TA98 at 500 ug/plate by Ames test in presence of S9 fraction. The series is classed as toxicity, organism-based. The note with it: salmonella enterica subsp. enterica serovar typhimurium.
Series [31] concerns Salmonella typhimurium. Put plainly: Genotoxicity in Salmonella typhimurium TA98 at 500 ug/plate by Ames test in absence of S9 fraction. The format is toxicity, organism-based. The note with it: salmonella enterica subsp. enterica serovar typhimurium.
The test system of series [32] is Salmonella typhimurium. The series is described as follows: Genotoxicity in Salmonella typhimurium TA100 at 1600 ug/plate by Ames test in absence of S9 fraction. The format is toxicity, organism-based. The note with it: salmonella enterica subsp. enterica serovar typhimurium.
Series [33] has as its system Salmonella typhimurium. Put plainly: Genotoxicity in Salmonella typhimurium TA100 at 160 ug/plate by Ames test in presence of S9 fraction. The note with it: salmonella enterica subsp. enterica serovar typhimurium. The format is toxicity, organism-based.
In series [34] the test system is Mycobacterium tuberculosis. Put plainly: Binding affinity to N-terminal His-tagged Mycobacterium tuberculosis DprE1 assessed as molecular weight shift due to semimercaptal covalent DprE1 adduct formation at 400 uM incubated for 5 hrs in presence of FAD and FPR by deconvoluted mass spectrometry.

Each structure is given as a SMILES string. In brackets after ≈: the same amount, converted by molar mass. Activity calls are given as the source filed them. The calls are words filed in the database; no cut-off is given here.

Chain of Cytochrome P450 2D6 (P10635 whole entry): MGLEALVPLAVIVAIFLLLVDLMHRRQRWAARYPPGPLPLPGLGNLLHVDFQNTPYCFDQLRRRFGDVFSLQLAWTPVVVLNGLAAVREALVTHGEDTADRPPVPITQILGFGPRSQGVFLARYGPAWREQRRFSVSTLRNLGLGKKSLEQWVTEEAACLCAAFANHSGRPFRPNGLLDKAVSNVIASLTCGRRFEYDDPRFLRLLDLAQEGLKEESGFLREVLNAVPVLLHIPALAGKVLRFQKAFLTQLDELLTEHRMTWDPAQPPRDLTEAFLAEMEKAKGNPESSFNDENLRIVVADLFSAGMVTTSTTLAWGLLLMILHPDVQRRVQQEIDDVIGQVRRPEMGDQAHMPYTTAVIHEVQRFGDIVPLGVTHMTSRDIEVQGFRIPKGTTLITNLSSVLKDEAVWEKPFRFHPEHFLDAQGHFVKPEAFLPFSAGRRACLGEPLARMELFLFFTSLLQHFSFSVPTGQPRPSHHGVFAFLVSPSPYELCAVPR
Chain of Cytochrome P450 3A4 (P08684 whole entry): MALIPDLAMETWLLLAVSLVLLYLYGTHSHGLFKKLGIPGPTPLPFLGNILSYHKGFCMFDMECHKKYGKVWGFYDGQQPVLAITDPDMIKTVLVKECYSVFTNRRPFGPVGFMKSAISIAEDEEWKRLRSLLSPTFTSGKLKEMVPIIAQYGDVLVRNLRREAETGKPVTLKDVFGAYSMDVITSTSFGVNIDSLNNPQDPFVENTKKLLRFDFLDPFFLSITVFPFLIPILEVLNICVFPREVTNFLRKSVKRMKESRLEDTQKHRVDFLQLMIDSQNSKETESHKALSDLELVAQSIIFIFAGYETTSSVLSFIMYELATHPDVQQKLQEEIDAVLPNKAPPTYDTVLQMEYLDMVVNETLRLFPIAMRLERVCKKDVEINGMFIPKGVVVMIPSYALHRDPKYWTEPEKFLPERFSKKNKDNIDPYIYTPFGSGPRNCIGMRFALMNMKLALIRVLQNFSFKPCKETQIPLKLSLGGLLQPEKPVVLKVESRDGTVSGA
Chain of Cytochrome P450 2C19 (P33261 whole entry): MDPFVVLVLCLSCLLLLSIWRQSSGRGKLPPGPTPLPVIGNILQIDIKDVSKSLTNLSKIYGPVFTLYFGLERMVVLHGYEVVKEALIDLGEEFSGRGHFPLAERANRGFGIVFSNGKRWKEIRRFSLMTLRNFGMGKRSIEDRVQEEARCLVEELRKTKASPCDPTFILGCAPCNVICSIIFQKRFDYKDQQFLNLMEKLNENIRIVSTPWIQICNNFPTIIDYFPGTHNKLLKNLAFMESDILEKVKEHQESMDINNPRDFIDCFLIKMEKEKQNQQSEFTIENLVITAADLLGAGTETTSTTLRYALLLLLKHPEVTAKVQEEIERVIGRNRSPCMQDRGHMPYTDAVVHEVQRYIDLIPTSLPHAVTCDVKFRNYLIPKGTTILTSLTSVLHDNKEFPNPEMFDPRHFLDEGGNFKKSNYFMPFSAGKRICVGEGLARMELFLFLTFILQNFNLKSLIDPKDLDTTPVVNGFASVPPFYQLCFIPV
Chain of Cytochrome P450 2C9 (P11712 whole entry): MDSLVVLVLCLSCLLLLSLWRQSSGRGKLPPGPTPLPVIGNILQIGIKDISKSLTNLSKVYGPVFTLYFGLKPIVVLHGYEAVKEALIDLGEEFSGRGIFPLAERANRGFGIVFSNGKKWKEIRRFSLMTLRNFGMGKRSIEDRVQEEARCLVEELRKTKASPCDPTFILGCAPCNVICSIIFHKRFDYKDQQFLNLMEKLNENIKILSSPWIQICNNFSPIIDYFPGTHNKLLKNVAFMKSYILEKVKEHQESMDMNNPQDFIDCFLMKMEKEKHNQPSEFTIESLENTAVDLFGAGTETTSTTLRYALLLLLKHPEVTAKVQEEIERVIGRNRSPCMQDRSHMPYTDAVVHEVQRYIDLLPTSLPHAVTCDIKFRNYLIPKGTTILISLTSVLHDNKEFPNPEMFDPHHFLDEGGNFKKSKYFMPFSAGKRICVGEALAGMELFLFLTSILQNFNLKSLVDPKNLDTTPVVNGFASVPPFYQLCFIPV

As to `O=C([C@@H]1COC(c2nc3cc(C(F)(F)F)cc([N+](=O)[O-])c3s2)=N1)N1CCCC1`, the IC50 (usually the concentration needed to halve the response being measured) in series [1] amounted to 3.4 µM; in [3], 82 µM; in series [8], 0.654 µM; in series [12] it was 12.4 µM; in series [17], 53.1 µM; in series [18], 18.6 µM. Moreover, the IC50 in series [20] was found to be 24.2 µM. For the same compound, the AUC (usually concentration integrated over time) in series [2] was determined as 9180 ng·h/mL. The MIC (in general, the lowest concentration that inhibits growth of the organism) in [4] is 1.4 µg/mL (≈ 3.38 µM). In addition, in series [5], the clearance (usually a measure of how efficiently the substance is removed, as volume per time) amounted to 49 mL/min/kg. The Activity result in series [6], in series [7], in [10] and in [15] was “Toxic” throughout. In addition, the fraction unbound (usually free concentration divided by total concentration) in [9] was 0.06. Besides, the microsomal CLint in [11] is 76.6 µL/min/mg; in [14], 5.3 µL/min/mg. Further, the Vd in series [13] turned out to be 1.44 L/kg. For the same compound, in series [16], the bioavailability – broadly, dose-corrected exposure relative to a reference, in per cent – worked out at 27%. Besides, the solubility (in general, the dissolved amount per volume that the medium holds) in [19] worked out at 64.6 µM (≈ 26.8 µg/mL).
`COCc1nc2cc(C(F)(F)F)cc([N+](=O)[O-])c2s1`: the Activity entry in series [21] and in [22] was “Non-toxic” throughout. The compound also gave an MIC in series [4] above 32 µg/mL. This compound also gave an IC50 in [8] of 5.9 µM.
As for `COCCN1CCN(C(=O)c2sc3c([N+](=O)[O-])cc(C(F)(F)F)cc3[n+]2[O-])CC1`, the Activity entry in series [23], in series [24], in series [25] and in [10] was “Toxic” throughout. In addition, the lowest concentration to inhibit growth in series [4] (MIC) was 0.03 µg/mL (≈ 0.0691 µM). Moreover, the IC50 in [8] is 0.027 µM.
For `Cc1c(C(F)(F)F)cc2nc(C3=N[C@H](C(=O)N4CCCC4)CO3)sc2c1[N+](=O)[O-]`, the IC50 in [1] was above 100 µM; in [3], above 100 µM; in series [8], 1.2 µM; in series [12] it was 22.1 µM; in series [17] it was above 100 µM; in [18], above 100 µM. In addition, in [20], the IC50 amounted to 73.5 µM. Further, the AUC in [2] came out at 10200 ng·h/mL. In addition, the Activity entry in series [26], in series [27], in series [28] and in [29] was “Non-toxic” in each case. This compound also gave an MIC in [4] of 2 µg/mL (≈ 4.67 µM). The compound also registered a clearance in [5] of 83.5 mL/min/kg. Further, the fraction unbound in series [9] is 0.063. For the same compound, the microsomal CLint in [11] came out at 37.9 µL/min/mg; in series [14] it was 9.6 µL/min/mg. Moreover, the Vd in [13] was found to be 3.5 L/kg. This compound also registered a bioavailability in [16] of 22.5%. In series [19], this compound registered a solubility of 12 µM (≈ 5.14 µg/mL).
For the compound `O=[N+]([O-])c1cc(C(F)(F)F)cc2nc(C3=NCCO3)sc12`, the Activity result in series [30], in series [31], in series [32] and in series [33] was “Toxic” throughout. The lowest concentration to inhibit growth in series [4] (MIC) was 1 µg/mL (≈ 3.15 µM).
As for `O=C(NCc1cccnc1)c1sc2c([N+](=O)[O-])cc(C(F)(F)F)cc2[n+]1[O-]`, the MIC in series [4] came out at 0.03 µg/mL (≈ 0.0753 µM). The result in series [34] was Active.

The record behind these values is ChEMBL document CHEMBL3739380, “Discovery of benzothiazoles as antimycobacterial agents: Synthesis, structure-activity relationships and binding studies with Mycobacterium tuberculosis decaprenylphosphoryl-β-D-ribose 2'-oxidase” (Bioorg Med Chem, 2015).
